# Laboratory results taken from patent US20250120967A1, “TYROSINE KINASES INHIBITORS AND USES THEREOF” (GREAT NOVEL THERAPEUTICS BIOTECH & MEDICALS CORPORATION, priority 2023, published 2025).
# Like-named read-outs stand apart in the source and are kept apart here.
# How the values were obtained:
# [1] = test system: CT-26 cells; test: In vitro cytotoxicity assay (MTT, 72 h); assay type: cell-based, murine; conditions: Mus musculus, CT26, growth inhibition
# Experimental: Six different cell lines were used, including human breast cancer cell lines MDA-MB-231 (6×10^3) and MDA-MB-453 (2.4×10^4), human colorectal cell line SW48 (2.4×10^4), human breast epithelial cell line M10 (6×10^3), human cancer cell line A549 (1.4×10^3), and murine colorectal carcinoma tumors CT26 (6×10^3), which were seeded in a 96-well plate. […] After 72 h, MTT assay (Cayman™) was used to determine the cellular viability.
# [2] = molecular target: BTK (Homo sapiens, UniProt Q06187); test: Tyrosine kinase inhibition assay; assay type: biochemical; conditions: for IC50: read-out: IC50 of compound; for inhibition at 1 µM: single concentration 1.0 μM, read-out: percent inhibition
# Experimental: (§1) Tyrosine kinase inhibition assays were performed at ThermoFisher Life Technologies (Madison, WI, USA) using standard protocols (SelectScreen Biochemical Profiling Service, Thermo Fisher Scientific). ATP concentrations used were at the apparent Km. Test compounds were screened in 1% dimethylsulffoxide (DMSO) (final concentration) in the well. For 10-point titrations, 3-fold serial dilutions were conducted from the starting concentration of […]. All Peptide/Kinase Mixtures were diluted to a 2× working concentration in the appropriate Kinase Buffer. All ATP Solutions were diluted to a 4× working concentration in Kinase Buffer (50 mM HEPES pH 7.5, 0.01% BRIJ-35, 10 mM MgCl2, 1 mM EGTA). The apparent ATP Km was previously determined using a Z′-LYTE assay. The Development Reagent was diluted in Development Buffer.
# (§2) The inhibition activities of compounds were determined in biochemical assays using single concentration (1.0 μM) measurements. The results were provided as percent inhibition values. A compound displaying a percent inhibition value of greater 80% was defined as a hit. 99 different tyrosine kinases were used.
# [3] = molecular target: EPHA2 (Homo sapiens, UniProt P29317); test: Tyrosine kinase inhibition assay; assay type: biochemical; conditions: for IC50: read-out: IC50 of compound; for inhibition at 1 µM: single concentration 1.0 μM, read-out: percent inhibition
# Experimental: as §1, §2
# [4] = molecular target: FER (Homo sapiens, UniProt P16591); test: Tyrosine kinase inhibition assay; assay type: biochemical; conditions: for IC50: read-out: IC50 of compound; for inhibition at 1 µM: single concentration 1.0 μM, read-out: percent inhibition
# FER, sequence (P16591 whole entry): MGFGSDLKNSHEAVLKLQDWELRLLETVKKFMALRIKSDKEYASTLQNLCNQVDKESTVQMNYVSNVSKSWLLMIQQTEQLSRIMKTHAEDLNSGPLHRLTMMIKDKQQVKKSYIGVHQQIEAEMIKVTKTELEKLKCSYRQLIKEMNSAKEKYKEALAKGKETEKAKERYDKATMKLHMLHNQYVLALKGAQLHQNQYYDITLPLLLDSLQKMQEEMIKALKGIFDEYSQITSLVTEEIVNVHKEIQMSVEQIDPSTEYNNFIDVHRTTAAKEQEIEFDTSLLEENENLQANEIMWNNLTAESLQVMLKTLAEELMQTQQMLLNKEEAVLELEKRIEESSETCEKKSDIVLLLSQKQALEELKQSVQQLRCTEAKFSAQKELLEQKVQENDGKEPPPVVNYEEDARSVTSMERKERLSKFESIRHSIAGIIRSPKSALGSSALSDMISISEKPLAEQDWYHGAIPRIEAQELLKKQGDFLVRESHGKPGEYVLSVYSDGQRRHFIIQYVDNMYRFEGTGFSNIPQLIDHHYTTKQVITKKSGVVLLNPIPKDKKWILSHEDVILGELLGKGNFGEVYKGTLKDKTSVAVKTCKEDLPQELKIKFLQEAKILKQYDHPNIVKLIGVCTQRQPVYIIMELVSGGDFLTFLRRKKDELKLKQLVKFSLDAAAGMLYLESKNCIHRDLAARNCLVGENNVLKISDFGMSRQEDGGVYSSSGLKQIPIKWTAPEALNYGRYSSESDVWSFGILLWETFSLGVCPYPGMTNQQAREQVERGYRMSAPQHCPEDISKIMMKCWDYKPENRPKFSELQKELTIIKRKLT
# Experimental: as §1, §2
# [5] = molecular target: FGR (Homo sapiens, UniProt P09769); test: Tyrosine kinase inhibition assay; assay type: biochemical; conditions: for IC50: read-out: IC50 of compound; for inhibition at 1 µM: single concentration 1.0 μM, read-out: percent inhibition
# Experimental: as §1, §2
# [6] = molecular target: FLT4 (VEGFR3) (Homo sapiens, UniProt P35916); test: Tyrosine kinase inhibition assay; assay type: biochemical; conditions: for IC50: read-out: IC50 of compound; for inhibition at 1 µM: single concentration 1.0 μM, read-out: percent inhibition
# FLT4 (VEGFR3), sequence (P35916 25-1363): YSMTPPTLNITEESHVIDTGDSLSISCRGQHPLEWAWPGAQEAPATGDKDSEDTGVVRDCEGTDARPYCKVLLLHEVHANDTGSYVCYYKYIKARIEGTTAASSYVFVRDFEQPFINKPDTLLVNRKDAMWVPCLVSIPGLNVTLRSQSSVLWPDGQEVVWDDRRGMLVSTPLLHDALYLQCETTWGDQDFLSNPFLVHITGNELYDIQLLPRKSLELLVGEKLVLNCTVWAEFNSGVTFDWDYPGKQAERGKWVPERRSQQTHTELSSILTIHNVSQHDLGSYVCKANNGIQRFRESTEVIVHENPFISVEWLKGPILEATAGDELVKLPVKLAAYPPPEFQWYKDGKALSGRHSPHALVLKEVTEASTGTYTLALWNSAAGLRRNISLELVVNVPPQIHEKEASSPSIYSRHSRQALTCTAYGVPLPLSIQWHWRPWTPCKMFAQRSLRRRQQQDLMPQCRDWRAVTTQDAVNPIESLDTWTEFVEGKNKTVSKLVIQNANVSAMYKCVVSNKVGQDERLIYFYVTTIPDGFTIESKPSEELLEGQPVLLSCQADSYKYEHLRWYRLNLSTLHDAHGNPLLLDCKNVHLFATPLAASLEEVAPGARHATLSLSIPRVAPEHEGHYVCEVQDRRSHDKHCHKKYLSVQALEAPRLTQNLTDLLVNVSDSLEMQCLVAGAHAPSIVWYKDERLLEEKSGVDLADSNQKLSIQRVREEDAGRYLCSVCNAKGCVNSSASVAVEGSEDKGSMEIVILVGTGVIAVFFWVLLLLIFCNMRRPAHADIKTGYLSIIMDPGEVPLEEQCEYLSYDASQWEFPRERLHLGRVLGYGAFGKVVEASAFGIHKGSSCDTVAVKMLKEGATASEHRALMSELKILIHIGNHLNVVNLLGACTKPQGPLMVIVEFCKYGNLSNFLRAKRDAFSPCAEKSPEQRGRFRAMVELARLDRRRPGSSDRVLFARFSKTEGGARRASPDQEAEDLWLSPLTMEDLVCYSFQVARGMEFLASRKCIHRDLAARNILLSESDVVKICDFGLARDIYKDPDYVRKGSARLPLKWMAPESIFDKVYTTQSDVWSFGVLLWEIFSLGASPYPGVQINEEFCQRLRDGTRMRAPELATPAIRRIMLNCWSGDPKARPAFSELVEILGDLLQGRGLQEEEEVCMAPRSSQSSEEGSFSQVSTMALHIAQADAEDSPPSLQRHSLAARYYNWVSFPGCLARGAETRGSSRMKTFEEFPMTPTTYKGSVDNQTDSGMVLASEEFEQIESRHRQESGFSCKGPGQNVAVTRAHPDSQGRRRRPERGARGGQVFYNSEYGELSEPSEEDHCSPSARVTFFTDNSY
# Experimental: as §1, §2
# [7] = molecular target: HCK (Homo sapiens, UniProt P08631); test: Tyrosine kinase inhibition assay; assay type: biochemical; conditions: for IC50: read-out: IC50 of compound; for inhibition at 1 µM: single concentration 1.0 μM, read-out: percent inhibition
# Experimental: as §1, §2
# [8] = molecular target: INSRR (IRR) (Homo sapiens, UniProt P14616); test: Tyrosine kinase inhibition assay; assay type: biochemical; conditions: for IC50: read-out: IC50 of compound; for inhibition at 1 µM: single concentration 1.0 μM, read-out: percent inhibition
# Experimental: as §1, §2
# [9] = molecular target: LCK (Homo sapiens, UniProt P06239); test: Tyrosine kinase inhibition assay; assay type: biochemical; conditions: for IC50: read-out: IC50 of compound; for inhibition at 1 µM: single concentration 1.0 μM, read-out: percent inhibition
# Experimental: as §1, §2
# [10] = molecular target: LYN A (Homo sapiens, UniProt P07948); test: Tyrosine kinase inhibition assay; assay type: biochemical; conditions: for IC50: read-out: IC50 of compound; for inhibition at 1 µM: single concentration 1.0 μM, read-out: percent inhibition
# Experimental: as §1, §2
# [11] = molecular target: LYN B (Homo sapiens, UniProt P07948); test: Tyrosine kinase inhibition assay; assay type: biochemical; conditions: for inhibition at 1 µM: single concentration 1.0 μM, read-out: percent inhibition
# LYN B, sequence (P07948 1-491 isoform P07948-2): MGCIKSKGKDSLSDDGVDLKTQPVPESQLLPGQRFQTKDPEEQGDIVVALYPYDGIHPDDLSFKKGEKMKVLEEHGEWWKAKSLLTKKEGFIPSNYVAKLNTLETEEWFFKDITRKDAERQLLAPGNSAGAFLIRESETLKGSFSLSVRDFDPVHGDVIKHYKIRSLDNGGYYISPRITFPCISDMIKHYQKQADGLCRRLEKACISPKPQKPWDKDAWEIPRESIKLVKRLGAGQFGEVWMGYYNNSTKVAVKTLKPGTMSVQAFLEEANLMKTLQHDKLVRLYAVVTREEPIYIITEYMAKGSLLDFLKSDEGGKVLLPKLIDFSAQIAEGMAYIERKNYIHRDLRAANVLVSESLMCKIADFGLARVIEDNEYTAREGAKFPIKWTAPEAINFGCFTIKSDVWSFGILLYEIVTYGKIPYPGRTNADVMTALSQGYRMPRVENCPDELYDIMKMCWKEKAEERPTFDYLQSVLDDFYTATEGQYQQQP
# Experimental: as §1, §2
# [12] = molecular target: NTRK2 (TRKB) (Homo sapiens, UniProt Q16620); test: Tyrosine kinase inhibition assay; assay type: biochemical; conditions: for inhibition at 1 µM: single concentration 1.0 μM, read-out: percent inhibition
# Experimental: as §1, §2
# [13] = molecular target: PDGFRA (PDGFR alpha) (Homo sapiens, UniProt P16234); test: Tyrosine kinase inhibition assay; assay type: biochemical; conditions: for IC50: read-out: IC50 of compound; for inhibition at 1 µM: single concentration 1.0 μM, read-out: percent inhibition
# Experimental: as §1, §2
# [14] = molecular target: ROS1 (Homo sapiens, UniProt P08922); test: Tyrosine kinase inhibition assay; assay type: biochemical; conditions: for IC50: read-out: IC50 of compound; for inhibition at 1 µM: single concentration 1.0 μM, read-out: percent inhibition
# ROS1, sequence (P08922 28-2347): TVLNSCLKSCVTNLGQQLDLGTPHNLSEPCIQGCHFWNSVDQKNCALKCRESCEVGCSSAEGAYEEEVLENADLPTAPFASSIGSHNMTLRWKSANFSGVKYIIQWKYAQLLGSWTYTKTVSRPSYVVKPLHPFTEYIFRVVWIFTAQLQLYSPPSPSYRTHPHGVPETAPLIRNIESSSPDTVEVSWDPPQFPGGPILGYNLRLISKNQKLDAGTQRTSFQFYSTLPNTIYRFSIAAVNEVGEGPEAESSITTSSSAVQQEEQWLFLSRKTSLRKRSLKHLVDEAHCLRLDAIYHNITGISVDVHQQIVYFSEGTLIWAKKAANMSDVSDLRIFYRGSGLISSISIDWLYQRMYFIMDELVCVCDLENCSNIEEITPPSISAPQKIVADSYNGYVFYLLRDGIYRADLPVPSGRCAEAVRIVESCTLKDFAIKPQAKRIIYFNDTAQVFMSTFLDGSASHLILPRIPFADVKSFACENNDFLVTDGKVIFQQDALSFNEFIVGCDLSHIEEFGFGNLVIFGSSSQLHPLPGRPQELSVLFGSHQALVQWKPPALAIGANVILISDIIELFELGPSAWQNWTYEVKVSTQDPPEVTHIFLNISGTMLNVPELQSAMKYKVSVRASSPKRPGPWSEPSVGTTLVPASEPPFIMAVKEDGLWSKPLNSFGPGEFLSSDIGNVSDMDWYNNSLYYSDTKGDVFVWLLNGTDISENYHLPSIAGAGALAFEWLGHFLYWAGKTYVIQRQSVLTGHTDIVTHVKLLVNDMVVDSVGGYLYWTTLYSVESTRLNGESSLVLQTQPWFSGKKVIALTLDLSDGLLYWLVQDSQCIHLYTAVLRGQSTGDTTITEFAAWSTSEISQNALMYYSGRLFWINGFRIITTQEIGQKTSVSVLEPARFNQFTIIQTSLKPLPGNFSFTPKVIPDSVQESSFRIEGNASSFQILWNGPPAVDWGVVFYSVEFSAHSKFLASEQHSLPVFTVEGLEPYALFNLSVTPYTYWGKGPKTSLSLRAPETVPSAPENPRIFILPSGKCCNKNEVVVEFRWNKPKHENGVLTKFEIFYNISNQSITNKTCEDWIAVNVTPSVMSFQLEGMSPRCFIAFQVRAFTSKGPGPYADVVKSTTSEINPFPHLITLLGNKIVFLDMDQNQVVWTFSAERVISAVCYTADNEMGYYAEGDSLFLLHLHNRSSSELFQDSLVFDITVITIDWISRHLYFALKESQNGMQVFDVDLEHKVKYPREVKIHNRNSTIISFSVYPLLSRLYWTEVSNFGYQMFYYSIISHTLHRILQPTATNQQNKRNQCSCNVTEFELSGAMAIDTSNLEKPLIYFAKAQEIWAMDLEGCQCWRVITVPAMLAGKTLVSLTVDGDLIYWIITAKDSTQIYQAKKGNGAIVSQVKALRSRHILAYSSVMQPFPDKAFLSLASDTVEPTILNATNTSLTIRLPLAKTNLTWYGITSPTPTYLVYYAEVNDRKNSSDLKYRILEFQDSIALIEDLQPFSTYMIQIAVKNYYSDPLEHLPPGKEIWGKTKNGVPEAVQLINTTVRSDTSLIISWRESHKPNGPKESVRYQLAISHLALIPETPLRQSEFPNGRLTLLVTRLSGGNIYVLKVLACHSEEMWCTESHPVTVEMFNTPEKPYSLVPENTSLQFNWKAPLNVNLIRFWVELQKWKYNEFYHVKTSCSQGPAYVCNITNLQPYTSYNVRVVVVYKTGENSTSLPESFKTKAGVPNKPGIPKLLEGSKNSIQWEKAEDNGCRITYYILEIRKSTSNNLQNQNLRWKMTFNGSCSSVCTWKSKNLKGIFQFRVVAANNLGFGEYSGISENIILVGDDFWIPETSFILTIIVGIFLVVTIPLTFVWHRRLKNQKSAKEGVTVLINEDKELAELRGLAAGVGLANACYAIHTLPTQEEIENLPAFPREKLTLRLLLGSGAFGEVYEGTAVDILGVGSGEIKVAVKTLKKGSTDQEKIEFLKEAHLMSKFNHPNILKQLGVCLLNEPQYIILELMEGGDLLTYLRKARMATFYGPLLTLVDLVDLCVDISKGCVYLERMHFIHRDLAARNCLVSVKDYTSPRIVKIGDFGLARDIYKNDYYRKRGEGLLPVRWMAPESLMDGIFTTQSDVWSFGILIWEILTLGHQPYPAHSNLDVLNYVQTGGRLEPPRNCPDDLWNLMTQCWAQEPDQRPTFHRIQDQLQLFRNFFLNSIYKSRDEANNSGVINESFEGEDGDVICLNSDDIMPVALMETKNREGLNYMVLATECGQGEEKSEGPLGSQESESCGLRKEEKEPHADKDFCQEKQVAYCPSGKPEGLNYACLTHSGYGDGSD
# Experimental: as §1, §2
# [15] = molecular target: SRC (Homo sapiens, UniProt P12931); test: Tyrosine kinase inhibition assay; assay type: biochemical; conditions: for IC50: read-out: IC50 of compound; for inhibition at 1 µM: single concentration 1.0 μM, read-out: percent inhibition
# Experimental: as §1, §2
# [16] = molecular target: FRK (PTK5) (Homo sapiens, UniProt P42685); test: Tyrosine kinase inhibition assay; assay type: biochemical; conditions: for inhibition at 1 µM: single concentration 1.0 μM, read-out: percent inhibition; for IC50: read-out: IC50 of compound
# Experimental: as §1
# (§3) The inhibition activities of compounds were determined in biochemical assays using single concentration (1.0 μM) measurements. The results were provided as percent inhibition values.
# [17] = molecular target: RET (Homo sapiens, UniProt P07949); test: Tyrosine kinase inhibition assay; assay type: biochemical; conditions: for inhibition at 1 µM: single concentration 1.0 μM, read-out: percent inhibition
# Experimental: as §1, §3
# [18] = test system: OVCAR-4; test: NCI-60 screen (SRB); assay type: cell-based; conditions: Homo sapiens; OVCAR-4, Ovarian Cancer
# Experimental: The human tumor cell lines of the cancer screening panel are grown in RPMI 1640 medium containing 5% fetal bovine serum and 2 mM L-glutamine. For a typical screening experiment, cells are inoculated into 96 well microtiter plates in 100 μL at plating densities ranging from 5,000 to 40,000 cells/well depending on the doubling time of individual cell lines. After cell inoculation, the microtiter plates are incubated at 37° C., 5% CO2, 95% air and 100% relative humidity for 24 h prior to addition of experimental drugs. After 24 h, two plates of each cell line are fixed in situ with TCA, to represent a measurement of the cell population for each cell line at the time of drug addition (Tz). Experimental drugs are solubilized in dimethyl sulfoxide at 400-fold the desired final maximum test concentration and stored frozen prior to use. At the time of drug addition, an aliquot of frozen concentrate is thawed and diluted to twice the desired final maximum test concentration with complete medium containing 50 µg/ml gentamicin. An additional four, 10-fold or M log serial dilutions are made to provide a total of five drug concentrations plus control. Aliquots of 100 μl of these different drug dilutions are added to the appropriate microtiter wells already containing 100 μl of medium, resulting in the required final drug concentrations. Following drug addition, the plates are incubated for an additional 48 h at 37° C., 5% CO2, 95% air, and 100% relative humidity. For adherent cells, the assay is terminated by the addition of cold TCA. Cells are fixed in situ by the gentle addition of 50 μl of cold 50% (w/v) TCA (final concentration, 10% TCA) and incubated for 60 minutes at 4° C. The supernatant is discarded, and the plates are washed five times with tap water and air dried. Sulforhodamine B (SRB) solution (100 l) at 0.4% (w/v) in 1% acetic acid is added to each well, and plates are incubated for 10 minutes at room temperature. After staining, unbound dye is removed by washing five times with 1% acetic acid and the plates are air dried. Bound stain is subsequently solubilized with 10 mM trizma base, and the absorbance is read on an automated plate reader at a wavelength of 515 nm. For suspension cells, the methodology is the same except that the assay is terminated by fixing settled cells at the bottom of the wells by gently adding 50 μl of 80% TCA (final concentration, 16% TCA).
# [19] = LYN B, read-out: IC50 of compound
# [20] = NTRK2 (TRKB), read-out: IC50 of compound
SMILES,IC50 [1],IC50 [2],inhibition at 1 µM [2],IC50 [3],inhibition at 1 µM [3],IC50 [4],inhibition at 1 µM [4],inhibition at 1 µM [5],inhibition at 1 µM [6],inhibition at 1 µM [7],inhibition at 1 µM [8],inhibition at 1 µM [9],inhibition at 1 µM [10],inhibition at 1 µM ([11]; LYN B),inhibition at 1 µM ([12]; NTRK2 (TRKB)),inhibition at 1 µM [13],inhibition at 1 µM [14],inhibition at 1 µM [15],inhibition at 1 µM [16],inhibition at 1 µM [17],further results
"COc1cc2nccc(Oc3ccc(NC(=O)C4(C(=O)Nc5ccc(F)cc5)CC4)cc3)c2cc1OC [Cabozantinib, reference compound]",19600 ± 4300 nM,172 nM,82%,37.7 nM,95%,424 nM,89%,97%,95%,90%,38%,95%,92%,91%,95%,92%,87%,89%,99%,98%,IC50 [5]: 88.8 nM; IC50 [6]: 30.3 nM; IC50 [7]: 111 nM; IC50 [8]: 386 nM; IC50 [9]: 38.1 nM; IC50 [10]: 217 nM; IC50 [11]: 67.7 nM; IC50 [12]: 53.3 nM; IC50 [13]: 84.1 nM; IC50 [14]: 60.6 nM; IC50 [15]: 141 nM
"COc1cc2nccc(Oc3ccc(NC(=O)C4(NC(=O)c5ccc(F)cc5)CC4)cc3F)c2cc1OC [Cbo-02, N-(1-((4-((6,7-diMethoxyquinolin-4-yl)oxy)-3-fluorophenyl)carbamoyl)cyclopropyl)-4-fluorobenzamide]",8200 ± 600 nM,–,98%,–,33%,–,88%,74%,79%,62%,80%,85%,71%,81%,23%,48%,56%,42%,59%,67%,GI50 [18]: 2380 nM
COc1cc2nccc(Oc3ccc(NC(=O)C4(NC(=O)c5ccc(F)cc5)CC4)cc3F)c2cc1Oc1ccc(N)cc1F [Cbo-10],5010 ± 160 nM,–,102%,–,56%,–,97%,92%,92%,72%,93%,96%,81%,86%,73%,84%,95%,86%,91%,79%,GI50 [18]: > 100000 nM
COc1cc2nccc(Oc3ccc(NC(=O)C4(NC(=O)c5ccc(F)cc5)CC4)cc3F)c2cc1Oc1c(F)cc(N)cc1F [Cbo-14],4900 ± 110 nM,–,101%,–,61%,–,99%,92%,92%,74%,93%,97%,86%,87%,88%,94%,97%,86%,100%,89%,–
COc1cc2nccc(Oc3ccc(NC(=O)C4(C(=O)Nc5ccc(F)cc5)CC4)cc3F)c2cc1Oc1ccc(N)cc1F [Cbo-23],5180 ± 1730 nM,9.01 nM,101%,20.9 nM,102%,24.7 nM,101%,97%,99%,99%,97%,99%,92%,96%,112%,95%,100%,94%,99%,101%,"GI50 [18]: 2580 nM; IC50 [5]: 25.3 nM; IC50 [6]: 20.8 nM; IC50 [7]: 21.4 nM; IC50 [8]: 53.4 nM; IC50 [9]: 15.9 nM; IC50 [10]: 53.1 nM; IC50 [11, 19]: 18.8 nM; IC50 [12, 20]: 14.8 nM; IC50 [13]: 36.9 nM; IC50 [14]: 5.87 nM; IC50 [15]: 32.1 nM; IC50 [16]: 27 nM"
"CNC(=O)c1cc2c(Oc3ccc(NC(=O)C4(C(=O)Nc5ccc(F)cc5)CC4)cc3)ccnc2cc1OC [Zanzalintinib, reference compound]",22000 ± 290 nM,111 nM,–,52.2 nM,–,266 nM,–,–,–,–,–,–,–,–,–,–,–,–,–,–,"IC50 [5]: 35.4 nM; IC50 [6]: 21.7 nM; IC50 [7]: 59 nM; IC50 [8]: 302 nM; IC50 [9]: 7.07 nM; IC50 [10]: 70.9 nM; IC50 [11, 19]: 30.7 nM; IC50 [12, 20]: 112 nM; IC50 [13]: 93.9 nM; IC50 [14]: 71.4 nM; IC50 [15]: 45.1 nM; IC50 [16]: 10.3 nM; IC50 ([17]; read-out: IC50 of compound): 22.5 nM"
